Patent US7981924B2, “Thiophene derivatives” (Actelion Pharmaceuticals Ltd., priority 2005, dated 2011)

Columns and labels:
circulating lymphocytes = experiment: Assessment of in vivo efficacy: circulating lymphocytes after oral administration; set-up: species or system normotensive male Wistar rats; settings: 6 h after oral administration of 10 mg/kg, male Wistar rats, compared to vehicle group; mean ± SEM
Description: The efficacy of the compounds of Formula (I) is assessed by measuring the circulating lymphocytes after oral administration of 3 to 30 mg/kg of a compound of Formula (I) to normotensive male Wistar rats. The animals are housed in climate-controlled conditions with a 12 h-light/dark cycle, and have free access to normal rat chow and drinking water. Blood is collected before and 3, 6 and 24 h after drug administration. Full blood is subjected to hematology using Advia Hematology system (Bayer Diagnostics, Zurich, Switzerland).
All data are presented as mean ±SEM. Statistical analyses are performed by analysis of variance (ANOVA) using Statistica (StatSoft) and the Student-Newman-Keuls procedure for multiple comparisons. The null hypothesis is rejected when p<0.05.

[1] = biological target: recombinant human S1P1 receptor (Homo sapiens, UniProt P21453); experiment: GTPγS assay to determine EC50 values; format: biochemical; settings: 35S-GTPγS binding, membrane preparations of CHO cells expressing recombinant human S1P1 receptor
Chain of recombinant human S1P1 receptor (P21453 whole entry): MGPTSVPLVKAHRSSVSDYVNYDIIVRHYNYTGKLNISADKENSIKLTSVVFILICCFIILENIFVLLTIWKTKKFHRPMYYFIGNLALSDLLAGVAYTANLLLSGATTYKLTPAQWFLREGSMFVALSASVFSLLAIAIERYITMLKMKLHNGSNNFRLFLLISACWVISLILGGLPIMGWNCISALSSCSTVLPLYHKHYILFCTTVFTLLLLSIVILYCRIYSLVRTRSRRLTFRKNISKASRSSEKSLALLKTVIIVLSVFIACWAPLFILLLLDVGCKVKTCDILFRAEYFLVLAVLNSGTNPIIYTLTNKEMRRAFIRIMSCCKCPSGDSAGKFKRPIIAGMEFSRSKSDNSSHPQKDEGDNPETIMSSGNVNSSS
Description: GTPγS binding assays are performed in 96 well microtiter plates (Nunc, 442587) in a final volume of 200 μl, using membrane preparations of CHO cells expressing recombinant human S1P1 receptor. Assay conditions are 20 mM Hepes (Fluka, 54461), 100 mM NaCl (Fluka, 71378), 5 mM MgCl2 (Fluka, 63064), 0.1% BSA (Calbiochem, 126609), 1 μM GDP (Sigma, G-7127), 2.5% DMSO (Fluka, 41644), 50 pM ^35S-GTPγS (Amersham Biosciences, SJ1320). The pH is 7.4. Test compounds are dissolved and diluted in 100% DMSO and pre-incubated at room temperature for 30 min in 150 μl of the above assay buffer, in the absence of ^35S-GTPγS. After addition of 50 μl of ^35S-GTPγS, the assay is incubated for 1 h at rt. The assay is terminated by transfer of the reaction mixture to a Multiscreen plate (Millipore, MAHFC1H60) using a cell harvester from Packard Biosciences, and the plates are washed with ice-cold 10 mM Na2HPO4/NaH2PO4 (70%/30%), dried, sealed at the bottom and, after addition of 25 μl MicroScint20 (Packard Biosciences, order no. 6013621), sealed on the top. Membrane-bound ^35S-GTPγS is measured with a TopCount from Packard Biosciences.
EC50 is the concentration of agonist inducing 50% of the maximal specific ^35S-GTPγS binding. Specific binding is determined by subtracting non-specific binding from maximal binding. […]
The EC50 value was determined according to the method described above.

SMILES	Lymphocyte counts (circulating lymphocytes) [%]	EC50 [1] [nM]
CCc1sc(C(=O)CCc2cc(C)c(CCC(=O)O)c(C)c2)c2c1CC(C)(C)CC2 [Example 1, 3-{4-[3-(3-ethyl-5,5-dimethyl-4,5,6,7-tetrahydro-benzo[c]thiophen-1-yl)-3-oxo-propyl]-2,6-dimethyl-phenyl}-propionic acid]	−61 ± 5	–
CCc1cc(CCC(=O)c2sc(C(F)(F)F)c3c2CCC(C)(C)C3)cc(C)c1CCC(=O)O [Example 4, 3-{4-[3-(5,5-Dimethyl-3-trifluoromethyl-4,5,6,7-tetrahydro-benzo[c]thiophen-1-yl)-3-oxo-propyl]-2-ethyl-6-methyl-phenyl}-propionic acid]	–	4
